# Peptide text beside a SMILES is read from it. * marks the point of attachment. Biotin = O=C1N[C@H]2[C@H](CS[C@H]2CCCCC(=O)*)N1
# B1: a2N: recombinant N-terminal cytosolic tail, amino acid residues 1-402 of mouse V-ATPase a2-subunit (protein)
# chain: MGSLFRSESMCLAQLFLQSGTAYECLSALGEKGLVQFRDLNQNVSSFQRKFVGEVKRCEELERILVYLVQEITRADIPLPEGEASPPAPPLKHVLEMQEQLQKLEVELREVTKNKEKLRKNLLELVEYTHMLRVTKTFLKRNVEFEPTYEEFPALENDSLLDYSCMQRLGAKLGFVSGLIQQGRVEAFERMLWRACKGYTIVTYAELDECLEDPETGEVIKWYVFLISFWGEQIGHKVKKICDCYHCHIYPYPNTAEERREIQEGLNTRIQDLYTVLHKTEDYLRQVLCKAAESVCSRVVQVRKMKAIYHMLNMCSFDVTNKCLIAEVWCPEVDLPGLRRALEEGSRESGATIPSFMNTIPTKETPPTLIRTNKFTEGFQNIVDAYGVGSYREVNPALFTII
# modifications: left off: small tags and cut ends
# notes: recombinant N-terminal cytosolic tail, amino acid residues 1-402 of mouse V-ATPase a2-subunit
# Tests used:
# GST-ARNO(wt) = molecular target: T1, GST-ARNO(wt) (Homo sapiens, UniProt Q99418); experiment: a2N-derived peptide pull-down assay with GST-ARNO(wt); format: binding; parameters: key to interaction with ARNO (asterisk mark in Table 1): The interacting peptides are indicated in bold with an asterisk (*)
# T1 construct: i) 1-400aa, full length ARNO(wt); made in house; host or cells: E. coli BL21(DE3)
# T1 sequence (Q99418 1-400): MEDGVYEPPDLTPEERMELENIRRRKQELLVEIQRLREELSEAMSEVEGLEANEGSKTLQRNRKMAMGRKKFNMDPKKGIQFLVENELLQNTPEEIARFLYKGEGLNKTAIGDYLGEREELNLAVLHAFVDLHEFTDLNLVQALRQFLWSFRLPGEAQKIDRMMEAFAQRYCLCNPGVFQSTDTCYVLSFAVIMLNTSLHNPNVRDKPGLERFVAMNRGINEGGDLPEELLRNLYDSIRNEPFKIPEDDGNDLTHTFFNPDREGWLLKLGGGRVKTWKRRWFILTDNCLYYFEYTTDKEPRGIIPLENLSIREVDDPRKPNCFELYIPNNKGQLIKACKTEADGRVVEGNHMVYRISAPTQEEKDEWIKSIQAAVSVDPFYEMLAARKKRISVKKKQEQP
# Method: FIG. 2A is an image of a Western blot showing the results of an a2N-derived peptide pull-down assay. The indicated a2N-derived peptides were immobilized on streptavidin-beads and incubated with purified recombinant GST-ARNO(wt). Interacting complexes were eluted and analyzed by Western blotting using monoclonal anti-GST antibodies.
# FIG. 2B is an image of a Western blot showing the results of a pull-down assay with selected a2N-derived interacting peptides incubated with either GST (negative control) or GST-ARNO(wt). The first two lanes show the patterns obtained when either GST-only (lane 1) or GST-ARNO(wt) (lane 2) were loaded onto the gel.
# Peptides were synthesized, purified by HPLC and analyzed by mass spectrometry in the MGH Peptide/Protein Core Facility. All a2N-derived peptides were synthesized with a biotin-tag on the N-terminus for immobilization on streptavidin-agarose beads and with an additional C-terminal cysteine residue for immobilization on beads using sulfhydryl-specific crosslinkers. A peptide corresponding to the PB-domain of ARNO was synthesized containing either a non-phosphorylated or a phosphorylated Ser392 residue. Peptide stock solutions were prepared in DMSO at 5 mM concentration and stored at −20° C. […]
# [1] = molecular target: T2, ARNO's GEF activity with Arf6 (Homo sapiens, UniProt Q99418); experiment: radiolabel GDP/GTP-exchange (GEF) activity assay of ARNO with Arf6; format: biochemical; conditions: recombinant protein
# T2 sequence (Q99418 1-400): T1 sequence (Q99418 1-400)
# Method: To test the effect of V-ATPase-derived peptides on enzymatic activity of small GTPases, the GDP/GTP exchange activity assay of ARNO with Arf6 was established in the presence of GTPγS and phospholipids vesicles containing various amounts of phosphatidylinositol PIP2 (FIG. 8).
# Phospholipid vesicles were prepared by the extrusion method (Macia and Paris Biochemistry, 39: 5893-5901 (2000)). The lipids were dissolved in chloroform. A film of phospholipids was formed by evaporating chloroform and was resuspended in 50 mM Hepes, pH 7.5, and 1 mM dithiothreitol. The suspension was freeze-thawed 3 times and was passed through a 0.1 μm pore size polycarbonate filter.
# GDP/GTP-exchange activity of ARNO was measured using time-course radiolabel based assay as previously described (Santy et al., Curr Biol. 9:1173-1176 (1999)). […] After washing filters 3 times with 2 ml of stop buffer, radioactivity was quantified using Perkin-Elmer “Tri-Carb 2900TR” liquid-scintillation counter.
# In peptide-inhibition experiments, 500 nM of recombinant ARNO were incubated in the presence of different amounts (0-2000 nM) of FITC-a2N-01-TAT peptide or FITC-TAT peptide as a control. […] The enzymatic activities were followed for 30 min at 37° C. and radioactivity of aliquots were analyzed as described above.
Molecule,"interaction of a2N-derived peptide with GST-ARNO(wt) in pull-down (GST-ARNO(wt); Western blot anti-GST, GST-only as control)",interaction with ARNO (asterisk mark in Table 1) (GST-ARNO(wt); biotin-tagged peptides on streptavidin beads),modulation of GDP/GTP-exchange activity of ARNO [1]
"CSCC[C@H](NC(=O)CCCC[C@@H]1SC[C@@H]2NC(=O)N[C@@H]21)C(=O)NCC(=O)N[C@@H](CO)C(=O)N[C@@H](CC(C)C)C(=O)N[C@@H](Cc1ccccc1)C(=O)N[C@@H](CCCNC(=N)N)C(=O)N[C@@H](CO)C(=O)N[C@@H](CCC(=O)O)C(=O)N[C@@H](CO)C(=O)N[C@@H](CCSC)C(=O)N[C@@H](CS)C(=O)N[C@@H](CC(C)C)C(=O)N[C@@H](C)C(=O)N[C@@H](CCC(N)=O)C(=O)N[C@@H](CC(C)C)C(=O)N[C@@H](Cc1ccccc1)C(=O)N[C@@H](CC(C)C)C(=O)N[C@@H](CS)C(=O)O [a2N-01, Bio-MGSLFRSE SMCLAQLFL-Cys] (Biotin-MGSLFRSESMCLAQLFLC-OH; N-terminus and C-terminus assumed)",specific interaction,Bio-MGSLFRSE SMCLAQLFL-Cys *,–
B1,–,–,successfully used to modulate

# From US20140162285A1, “Methods of Modulating Vesicular Trafficking” (The General Hospital Corporation, priority 2009, published 2014)
